In patent US20070128217A1 (priority 2003, published 2007):

Legend:
[1] = test system: antibodies in sera from SARS patients (sera 1a, 1b, 2, 6, 37, 62, London, SARS-yellow, SARS-green); type: binding, human; design: Binding of serum 6 to linear peptides of protein X1 of SARS-CoV Urbani / Binding of serum 37 to linear peptides of protein X1 of SARS-CoV Urbani / Binding of serum 6 to looped/cyclic peptide (PEPSCAN-ELISA) / Binding of serum 37 to looped/cyclic peptide (PEPSCAN-ELISA) / Binding of serum 37 to looped/cyclic peptides of protein X1 of SARS-CoV Urbani / Binding of serum 6 to linear peptides of protein X2 / Binding of serum 37 to linear peptides of protein X2 / Binding of serum 37 to looped/cyclic peptides of protein X2 of SARS-CoV Urbani / Binding of serum 6 to linear peptides of protein M of SARS-CoV Urbani / Binding of serum 37 to linear peptides of protein M of SARS-CoV Urbani / Binding of serum 6 to looped/cyclic peptides of protein M of SARS-CoV Urbani / Binding of serum 37 to looped/cyclic peptides of protein M of SARS-CoV Urbani / Binding of serum 6 to linear peptides of protein X3 of SARS-CoV Urbani / Binding of serum 37 to linear peptides of protein X3 of SARS-CoV Urbani / Binding of serum 37 to looped/cyclic peptides of protein X3 of SARS-CoV Urbani / Binding of serum 6 to linear peptides of protein X4 of SARS-CoV Urbani / Binding of serum 37 to linear peptides of protein X4 of SARS-CoV Urbani / Binding of serum 37 to looped/cyclic peptides of protein X4 of SARS-CoV Urbani / Binding of serum 6 to linear peptides of protein X5 of SARS-CoV Urbani / Binding of serum 37 to linear peptides of protein X5 of SARS-CoV Urbani / Binding of serum 37 to looped/cyclic peptides of protein X5 of SARS-CoV Urbani / Binding of serum 6 to linear peptides of protein N of SARS-CoV Urbani / Binding of serum 37 to linear peptides of protein N of SARS-CoV Urbani / Binding of serum 6 to linear peptide (PEPSCAN-ELISA) / Binding of serum 1a to looped/cyclic peptides of protein N of SARS-CoV Urbani / Binding of serum 1b to looped/cyclic peptides of protein N of SARS-CoV Urbani / Binding of serum 2 to looped/cyclic peptides of protein N of SARS-CoV Urbani / Binding of serum 6 to looped/cyclic peptides of protein N of SARS-CoV Urbani / Binding of serum 37 to looped/cyclic peptides of protein N of SARS-CoV Urbani / Binding of serum 62 to looped/cyclic peptides of protein N of SARS-CoV Urbani / Binding of serum London to looped/cyclic peptides of protein N of SARS-CoV Urbani / Binding of serum SARS-green to looped/cyclic peptides of protein N of SARS-CoV Urbani: unit not given here
[2] = test system: control sera (pooled serum of ten healthy LUMC hospital workers; commercial negative donor pooled serum from the Dutch bloodbank); type: binding, human; design: Binding of Control serum LUMC to linear peptides / Binding of Control serum Blood-bank to linear peptides / Binding of Control serum LUMC to looped peptides / Binding of Control Serum Blood-Bank to Looped peptides / Binding of Control serum LUMC to linear peptides of the protein M of SARS-CoV Urbani / Binding of Control serum Blood-bank to linear peptides of the protein M of SARS-CoV Urbani / Binding of Control serum LUMC to looped peptides of the protein M of SARS-CoV Urbani / Binding of Control Serum Blood-Bank to Looped peptides of the protein M of SARS-CoV Urbani: unit not given here
[3] = test system: recombinant human anti-SARS-CoV antibody 03-018; type: binding; design: Binding of antibody 03-018 to linear peptides of the N protein of SARS-CoV Urbani / Binding of antibody 03-018 to looped/cyclic peptides of the N protein of SARS-CoV Urbani: unit not given here
[4] = test system: rabbit serum obtained by immunizing a rabbit with the SARS-CoV strain Frankfurt 1; type: binding; design: Binding of a rabbit serum to linear peptides / Binding of a rabbit serum to looped peptides / Rabbit serum linear peptides / Rabbit serum looped peptides / Binding of a rabbit serum to linear peptides of protein N of SARS-CoV Urbani (Rabbit serum linear peptides) / Binding of a rabbit serum to looped/cyclic peptides of protein N of SARS-CoV Urbani (Rabbit serum looped peptides): unit not given here

SNQRSAPRITFGGPT
Binding of serum 1a to linear peptides of protein N of SARS-CoV Urbani [1]: 0.2 | Binding of serum 1a to looped/cyclic peptides of protein N of SARS-CoV Urbani [1]: 0.4 | Binding of serum 1b to linear peptides of protein N of SARS-CoV Urbani [1]: 0.1 | Binding of serum 1b to looped/cyclic peptides of protein N of SARS-CoV Urbani [1]: 0.2 | Binding of serum 2 to linear peptides of protein N of SARS-CoV Urbani [1]: 0.2 | Binding of serum 2 to looped/cyclic peptides of protein N of SARS-CoV Urbani [1]: 0.4 | Binding of serum 6 to linear peptides of protein N of SARS-CoV Urbani [1]: 0.1 | Binding of serum 6 to looped/cyclic peptides of protein N of SARS-CoV Urbani [1]: 0.4 | Binding of serum 37 to linear peptides of protein N of SARS-CoV Urbani [1]: 0.6 | Binding of serum 37 to looped/cyclic peptides of protein N of SARS-CoV Urbani [1]: 0.7 | Binding of serum 62 to linear peptides of protein N of SARS-CoV Urbani [1]: 0.6 | Binding of serum 62 to looped/cyclic peptides of protein N of SARS-CoV Urbani [1]: 0.4 | Binding of serum London to linear peptides of protein N of SARS-CoV Urbani [1]: 0.4 | Binding of serum London to looped/cyclic peptides of protein N of SARS-CoV Urbani [1]: 0.9 | Binding of serum SARS-green to linear peptides of protein N of SARS-CoV Urbani [1]: 0.2 | Binding of serum SARS-green to looped/cyclic peptides of protein N of SARS-CoV Urbani [1]: 0.3 | Binding of serum SARS-yellow to linear peptides of protein N of SARS-CoV Urbani [1]: 0.5 | Binding of serum SARS-yellow to looped/cyclic peptides of protein N of SARS-CoV Urbani [1]: 0.6 | Binding of Control Serum Blood-Bank to Looped peptides [2]: 0.7 | Binding of Control serum Blood-bank to linear peptides [2]: 0.6 | Binding of Control serum LUMC to linear peptides [2]: 0.5 | Binding of Control serum LUMC to looped peptides [2]: 0.7 | Recognition of the peptide by antibody 03-018 [3]: recognized | Binding of a rabbit serum to linear peptides of protein N of SARS-CoV Urbani (Rabbit serum linear peptides) [4]: 0.4 | Binding of a rabbit serum to looped/cyclic peptides of protein N of SARS-CoV Urbani (Rabbit serum looped peptides) [4]: 0.9

SPRWYFYYLGTGPEA
Binding of serum 1a to linear peptides of protein N of SARS-CoV Urbani [1]: 0.3 | Binding of serum 1a to looped/cyclic peptides of protein N of SARS-CoV Urbani [1]: 0.6 | Binding of serum 1b to linear peptides of protein N of SARS-CoV Urbani [1]: 0.2 | Binding of serum 1b to looped/cyclic peptides of protein N of SARS-CoV Urbani [1]: 0.3 | Binding of serum 2 to linear peptides of protein N of SARS-CoV Urbani [1]: 0.2 | Binding of serum 2 to looped/cyclic peptides of protein N of SARS-CoV Urbani [1]: 0.5 | Binding of serum 6 to linear peptides of protein N of SARS-CoV Urbani [1]: 0.2 | Binding of serum 6 to looped/cyclic peptides of protein N of SARS-CoV Urbani [1]: 0.4 | Binding of serum 37 to linear peptides of protein N of SARS-CoV Urbani [1]: 0.9 | Binding of serum 37 to looped/cyclic peptides of protein N of SARS-CoV Urbani [1]: 0.9 | Binding of serum 62 to linear peptides of protein N of SARS-CoV Urbani [1]: 0.9 | Binding of serum 62 to looped/cyclic peptides of protein N of SARS-CoV Urbani [1]: 1.1 | Binding of serum London to linear peptides of protein N of SARS-CoV Urbani [1]: 0.5 | Binding of serum London to looped/cyclic peptides of protein N of SARS-CoV Urbani [1]: 0.7 | Binding of serum SARS-green to linear peptides of protein N of SARS-CoV Urbani [1]: 0.6 | Binding of serum SARS-green to looped/cyclic peptides of protein N of SARS-CoV Urbani [1]: 0.6 | Binding of serum SARS-yellow to linear peptides of protein N of SARS-CoV Urbani [1]: 0.6 | Binding of serum SARS-yellow to looped/cyclic peptides of protein N of SARS-CoV Urbani [1]: 0.7 | Binding of Control Serum Blood-Bank to Looped peptides [2]: 0.8 | Binding of Control serum Blood-bank to linear peptides [2]: 0.7 | Binding of Control serum LUMC to linear peptides [2]: 0.6 | Binding of Control serum LUMC to looped peptides [2]: 0.8 | Binding of antibody 03-018 to linear peptides of the N protein of SARS-CoV Urbani [3]: 0.1 | Binding of antibody 03-018 to looped/cyclic peptides of the N protein of SARS-CoV Urbani [3]: 0.2 | Binding of a rabbit serum to linear peptides of protein N of SARS-CoV Urbani (Rabbit serum linear peptides) [4]: 0.2 | Binding of a rabbit serum to looped/cyclic peptides of protein N of SARS-CoV Urbani (Rabbit serum looped peptides) [4]: 0.6

SRGGSQASSRSSSRS
Binding of serum 1a to linear peptide (PEPSCAN-ELISA) [1]: 0.3 | Binding of serum 1a to looped/cyclic peptides of protein N of SARS-CoV Urbani [1]: 0.4 | Binding of serum 1b to linear peptide (PEPSCAN-ELISA) [1]: 0.1 | Binding of serum 1b to looped/cyclic peptides of protein N of SARS-CoV Urbani [1]: 0.3 | Binding of serum 2 to linear peptide (PEPSCAN-ELISA) [1]: 0.3 | Binding of serum 2 to looped/cyclic peptides of protein N of SARS-CoV Urbani [1]: 0.3 | Binding of serum 6 to linear peptide (PEPSCAN-ELISA) [1]: 0.4 | Binding of serum 6 to looped/cyclic peptides of protein N of SARS-CoV Urbani [1]: 0.3 | Binding of serum 37 to linear peptide (PEPSCAN-ELISA) [1]: 0.6 | Binding of serum 37 to looped/cyclic peptides of protein N of SARS-CoV Urbani [1]: 0.5 | Binding of serum 62 to linear peptide (PEPSCAN-ELISA) [1]: 0.7 | Binding of serum 62 to looped/cyclic peptides of protein N of SARS-CoV Urbani [1]: 0.3 | Binding of serum London to linear peptide (PEPSCAN-ELISA) [1]: 0.4 | Binding of serum London to looped/cyclic peptides of protein N of SARS-CoV Urbani [1]: 0.3 | Binding of serum SARS-green to linear peptide (PEPSCAN-ELISA) [1]: 0.1 | Binding of serum SARS-green to looped/cyclic peptides of protein N of SARS-CoV Urbani [1]: 0.2 | Binding of serum SARS-yellow to linear peptide (PEPSCAN-ELISA) [1]: 0.9 | Binding of serum SARS-yellow to looped/cyclic peptides of protein N of SARS-CoV Urbani [1]: 0.2 | Binding of Control Serum Blood-Bank to Looped peptides [2]: 0.5 | Binding of Control serum Blood-bank to linear peptides [2]: 0.7 | Binding of Control serum LUMC to linear peptides [2]: 0.6 | Binding of Control serum LUMC to looped peptides [2]: 0.6 | Binding of antibody 03-018 to linear peptides of the N protein of SARS-CoV Urbani [3]: 0.1 | Binding of antibody 03-018 to looped/cyclic peptides of the N protein of SARS-CoV Urbani [3]: 0.2 | Binding of a rabbit serum to linear peptides of protein N of SARS-CoV Urbani (Rabbit serum linear peptides) [4]: 0.2 | Binding of a rabbit serum to looped/cyclic peptides of protein N of SARS-CoV Urbani (Rabbit serum looped peptides) [4]: 0.5
